Each structure is given as a SMILES string.

The assay can be described thus: Tet-Inducible cAMP Assay: A human-mouse chimeric GPR119 expression construct encoding 3 copies of the FLAG epitope tag, the first 198 amino acids of human GPR119 and the C-terminal 137 amino acids of the mouse receptor was cloned into a tetracycline inducible vector pcDNA5/FRT/TO (Invitrogen #V6520-20), which includes a hygromycin-resistance marker. Tightly controlled receptor expression was achieved by stable integration of this construct into the genome of a specific host cell line, Flp-In-T-Rex-HEK293, expressing the tetracycline repressor (Invitrogen). Once a stable hygromycin-resistant cell line was generated, the cells were maintained at 37° C. in a humidified 5% CO2 atmosphere in culture medium consisting of Dulbecco's modified Eagle's medium (DMEM; Invitrogen #11960) supplemented with 2 mM L-glutamine, 10% fetal bovine serum, 200 μg/ml hygromycin B, and 15 μg/ml blasticidin.
Usually EC50 stands for the concentration that produces a half-maximal response. Take `Cc1nc(-n2ccc(OC3CCN(c4ncc(Cl)cn4)CC3)cc2=O)ccc1N1CCC(O)C1=O` (stereo not drawn): the EC50 amounted to 10 nM.

With `Cc1nc(-n2cc(Cl)c(OC3CCN(c4ncc(Cl)cn4)CC3)cc2=O)ccc1N1CC[C@@H](O)C1=O`, the EC50 was determined as 3 nM.

Take `Cc1nc(-n2cc(Cl)c(OC3CCN(c4ncc(Cl)cn4)CC3)cc2=O)ccc1N1CCC(O)C1=O` (stereo not drawn): the EC50 amounted to 2 nM.

Source of the values: ChEMBL document CHEMBL3886324, “Pyrimidinylpiperidinyloxypyridone analogues as GPR119 modulators” (2015).
